According to patent US12473289B2, “Heterocyclic compounds as delta-5 desaturase inhibitors and methods of use” (Amgen Inc., priority 2019, dated 2025):

Each molecule was assayed against Delta-5-Desaturase (D5D) (Homo sapiens (Human), UniProt O60427) (assay: In vitro measurement of Delta-5-Desaturase inhibitory activity using DGLA-CoA and Arachidonyl-CoA mass spectrometric assays). Conditions: membrane preparations of D5D-overexpressing HEK293 6E cells; averaged over at least two independent runs.
Delta-5-Desaturase (D5D), sequence (O60427 whole entry, species assumed): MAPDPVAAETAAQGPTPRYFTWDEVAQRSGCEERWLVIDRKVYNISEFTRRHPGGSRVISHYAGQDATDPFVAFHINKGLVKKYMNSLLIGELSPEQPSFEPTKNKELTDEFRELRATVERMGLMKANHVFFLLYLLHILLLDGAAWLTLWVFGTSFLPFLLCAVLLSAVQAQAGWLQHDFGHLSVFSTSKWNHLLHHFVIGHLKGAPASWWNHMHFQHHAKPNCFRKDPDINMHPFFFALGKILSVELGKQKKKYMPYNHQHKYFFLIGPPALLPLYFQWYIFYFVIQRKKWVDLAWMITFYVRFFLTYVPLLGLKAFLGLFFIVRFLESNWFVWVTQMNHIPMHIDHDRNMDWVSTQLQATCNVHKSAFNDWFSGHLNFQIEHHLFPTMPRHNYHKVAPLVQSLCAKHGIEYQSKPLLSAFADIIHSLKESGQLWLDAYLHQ
Type: biochemical
Procedure, shortened: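 Membranes from D5D-overexpressing HEK293 6E cells (10 μg/mL final) in Tris pH 7.5 with MgCl2, octyl glucoside and TCEP were mixed 1:1 with substrate solution (0.01 mM DGLA, 0.25 mM NADH, 0.25 mM ATP, 0.05 mM CoA) for 1 h at ambient temperature. RapidFire SPE-MS/MS MRM; IC50 by 4-parameter fit, ≥2 runs.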

Compound | IC50 [nM]
O=C(O)c1ccn2c(=O)c(-c3ccc(OCC(F)(F)F)cc3)c(C(F)(F)F)nc2c1 [Example 2-2, 4-oxo-3-(4-(2,2,2-trifluoroethoxy)phenyl)-2-(trifluoromethyl)-4H-pyrido[1,2-a]pyrimidine-8-carboxylic acid] | 646
COc1cnn2c(=O)c(-c3cnc(OCC(F)(F)F)nc3)c(C(F)(F)F)nc2c1 [Example 38, 8-Methoxy-3-[2-(2,2,2-trifluoroethoxy)pyrimidin-5-yl]-2-(trifluoromethyl)-4H-pyrimido[1,2-b]pyridazin-4-one] | 99.2
C[C@H](O)c1ccn2c(=O)c(-c3ccc(OCC(F)(F)F)cc3)c(C(F)(F)F)nc2c1 [Example 30-1, 8-((1S)-1-hydroxyethyl)-3-(4-(2,2,2-trifluoroethoxy)phenyl)-2-(trifluoromethyl)-4H-pyrido[1,2-a]pyrimidin-4-one] | 74.2
COc1ccn2c(=O)c(-c3ccc(CC#N)cc3)c(C(F)(F)F)nc2c1 [Example 1-2, (4-(8-methoxy-4-oxo-2-(trifluoromethyl)-4H-pyrido[1,2-a]pyrimidin-3-yl)phenyl)acetonitrile] | 305
COc1ccn2c(=O)c(-c3cnn(CC4CC(F)(F)C4)c3)c(C(F)(F)F)nc2c1 [Example 39-49, 3-{1-[(3,3-difluorocyclobutyl)methyl]-1H-pyrazol-4-yl}-8-methoxy-2-(trifluoromethyl)-4H-pyrido[1,2-a]pyrimidin-4-one] | 4.6
O=c1ccn2c(=O)c(-c3ccc(OCC(F)(F)F)cc3)c(C(F)(F)F)nc2[nH]1 [Example 10-3, 7-(4-(2,2,2-trifluoroethoxy)phenyl)-8-(trifluoromethyl)-2H-pyrimido[1,2-a]pyrimidine-2,6(1H)-dione] | 900
COc1ccn2c(=O)c(-c3cc(-c4ccccc4)no3)c(C(F)(F)F)nc2c1 [Example 1-5, 8-methoxy-3-(3-phenyl-1,2-oxazol-5-yl)-2-(trifluoromethyl)-4H-pyrido[1,2-a]pyrimidin-4-one] | 46
CC(=O)Nc1ccn2c(=O)c(-c3cnn(CC(F)(F)C(F)(F)F)c3)c(C(F)(F)F)nc2c1 [Example 1-82, N-(4-oxo-3-(1-(2,2,3,3,3-pentafluoropropyl)-1H-pyrazol-4-yl)-2-(trifluoromethyl)-4H-pyrido[1,2-a]pyrimidin-8-yl)acetamide] | 56
Cc1cc2nc(C(F)(F)F)c(-c3cnn(CCC(F)(F)F)c3)c(=O)n2nc1C [Example 39-47, 7,8-dimethyl-2-(trifluoromethyl)-3-[1-(3,3,3-trifluoropropyl)-1H-pyrazol-4-yl]-4H-pyrimido[1,2-b]pyridazin-4-one] | 65.6
COc1ccn2c(=O)c(-c3ncc(OCC(F)(F)F)s3)c(C(F)(F)F)nc2c1 [Example 57, 8-methoxy-3-[5-(2,2,2-trifluoroethoxy)-1,3-thiazol-2-yl]-2-(trifluoromethyl)-4H-pyrido[1,2-a]pyrimidin-4-one] | 1150
O=c1c(-c2cnn(CC(F)(F)C(F)(F)F)c2)c(C(F)(F)F)nc2ccc(N3CCC3)cn12 [Example 39-28, 7-(azetidin-1-yl)-3-[1-(2,2,3,3,3-pentafluoropropyl)-1H-pyrazol-4-yl]-2-(trifluoromethyl)-4H-pyrido[1,2-a]pyrimidin-4-one] | > 67000
COc1ccn2c(=O)c(-c3ccc(OCC(F)(F)F)cc3C(F)(F)F)c(C(F)(F)F)nc2c1 [Example 8-2, 8-methoxy-3-(4-(2,2,2-trifluoroethoxy)-2-(trifluoromethyl)phenyl)-2-(trifluoromethyl)-4H-pyrido[1,2-a]pyrimidin-4-one] | 605
COc1ccn2c(=O)c(-c3ccc(OCC(F)(F)C(F)(F)F)cc3)c(C(F)(F)F)nc2c1 [Example 22, 8-Methoxy-3-(4-(2,2,3,3,3-pentafluoropropoxy)phenyl)-2-(trifluoromethyl)-4H-pyrido[1,2-a]pyrimidin-4-one] | 4
C[S+]([O-])c1ccn2c(=O)c(-c3ccc(OCC(F)(F)F)cc3)c(C(F)(F)F)nc2c1 (stereo not drawn) [Example 15-1, 8-(Methylsulfinyl)-3-(4-(2,2,2-trifluoroethoxy)phenyl)-2-(trifluoromethyl)-4H-pyrido[1,2-a]pyrimidin-4-one] | 441
COc1nc2nc(C(F)(F)F)c(-c3cnn(CC(F)(F)C(F)(F)F)c3)c(=O)n2cc1Cl [Example 66, 7-Chloro-8-methoxy-3-[1-(2,2,3,3,3-pentafluoropropyl)-1H-pyrazol-4-yl]-2-(trifluoromethyl)-4H-[1,3]diazino[1,2-a]pyrimidin-4-one] | 111
COCc1ccn2c(=O)c(-c3cnn(CC(F)(F)C(F)(F)F)c3)c(C(F)(F)F)nc2c1 [Example 36, 8-(Methoxymethyl)-3-[1-(2,2,3,3,3-pentafluoropropyl)-1H-pyrazol-4-yl]-2-(trifluoromethyl)-4H-pyrido[1,2-a]pyrimidin-4-one] | 162
CN(C)c1ccn2c(=O)c(-c3ccc(OCC(F)(F)F)cc3)c(C(F)(F)F)nc2c1 [Example 1-28, 8-(dimethylamino)-3-(4-(2,2,2-trifluoroethoxy)phenyl)-2-(trifluoromethyl)-4H-pyrido[1,2-a]pyrimidine-4-one] | 43.5
COc1ccn2c(=O)c(-c3ccc(OCC#N)cc3)c(C(F)(F)F)nc2n1 [Example 1-40, (4-(8-methoxy-4-oxo-2-(trifluoromethyl)-4H-pyrimido[1,2-a]pyrimidin-3-yl)phenoxy)acetonitrile] | 18.6
Cc1cc2nc(C(F)(F)F)c(-c3cnn(CC(F)(F)C(F)(F)F)c3)c(=O)n2cc1Cl [Example 41-1, 7-Chloro-8-methyl-3-[1-(2,2,3,3,3-pentafluoropropyl)-1H-pyrazol-4-yl]-2-(trifluoromethyl)-4H-pyrido[1,2-a]pyrimidin-4-one] | 1.2
COc1ccn2c(=O)c(-c3ccc(OCC(F)(F)F)nc3)c(C(F)F)nc2c1 [Example 1-13, 2-(difluoromethyl)-8-methoxy-3-(6-(2,2,2-trifluoroethoxy)-3-pyridinyl)-4H-pyrido[1,2-a]pyrimidin-4-one] | 34.2
CC(=O)c1ccn2c(=O)c(-c3ccc(OCC(F)(F)F)cc3)c(C(F)(F)F)nc2c1 [Example 1-25, 8-acetyl-3-(4-(2,2,2-trifluoroethoxy)phenyl)-2-(trifluoromethyl)-4H-pyrido[1,2-a]pyrimidin-4-one] | 6.4

Further lines, results first:

IC50 [nM] | Compound
> 67000 | O=c1c(-c2cnc(OCC(F)(F)F)nc2)c(C(F)(F)F)nc2ccc(Cl)cn12 [Example 39-18, 7-chloro-3-[2-(2,2,2-trifluoroethoxy)pyrimidin-5-yl]-2-(trifluoromethyl)-4H-pyrido[1,2-a]pyrimidin-4-one]
566 | COc1ccn2c(=O)c(-c3ccc(O[C@H](C)C#N)cc3)c(C(F)(F)F)nc2c1 [Example 8-8, (2R)-2-(4-(8-methoxy-4-oxo-2-(trifluoromethyl)-4H-pyrido[1,2-a]pyrimidin-3-yl)phenoxy)propanenitrile]
46.4 | COc1ccn2c(=O)c(-c3cnn(CC(F)(F)C(F)(F)F)c3)c(C(F)(F)F)nc2c1F [Example 39-4, 9-fluoro-8-methoxy-3-[1-(2,2,3,3,3-pentafluoropropyl)-1H-pyrazol-4-yl]-2-(trifluoromethyl)-4H-pyrido[1,2-a]pyrimidin-4-one]
51.1 | Cc1cc2nc(C(F)(F)F)c(-c3cnn(CCC(F)(F)F)c3)c(=O)n2cc1Cl [Example 41-2, 7-chloro-8-methyl-2-(trifluoromethyl)-3-[1-(3,3,3-trifluoropropyl)-1H-pyrazol-4-yl]-4H-pyrido[1,2-a]pyrimidin-4-one]
148 | N#Cc1ccn2c(=O)c(-c3cnn(CC(F)(F)C(F)(F)F)c3)c(C(F)F)nc2c1 [Example 1-85, 2-(difluoromethyl)-4-oxo-3-(1-(2,2,3,3,3-pentafluoropropyl)-1H-pyrazol-4-yl)-4H-pyrido[1,2-a]pyrimidine-8-carbonitrile]
35100 | COC(=O)c1ccc2nc(C(F)(F)F)c(-c3cnn(CC(F)(F)C(F)(F)F)c3)c(=O)n2c1 [Example 39-16, methyl 4-oxo-3-[1-(2,2,3,3,3-pentafluoropropyl)-1H-pyrazol-4-yl]-2-(trifluoromethyl)-4H-pyrido[1,2-a]pyrimidine-7-carboxylate]
6.3 | COc1cc2nc(C(F)(F)F)c(-c3cnn(CC(F)(F)C(F)(F)F)c3)c(=O)n2cn1 [Example 39-10, 8-methoxy-3-[1-(2,2,3,3,3-pentafluoropropyl)-1H-pyrazol-4-yl]-2-(trifluoromethyl)-4H-[1,3]diazino[1,6-a]pyrimidin-4-one]
40.9 | CNc1ccn2c(=O)c(-c3ccc(OCC(F)(F)F)cc3)c(C(F)(F)F)nc2n1 [Example 14-1, 8-(Methylamino)-3-(4-(2,2,2-trifluoroethoxy)phenyl)-2-(trifluoromethyl)-4H-pyrimido[1,2-a]pyrimidin-4-one]
48.6 | O=c1c(-c2ccc(OCC(F)(F)F)cc2)c(C(F)(F)F)nc2cc(OCF)ccn12 [Example 17-2, 8-(fluoromethoxy)-3-(4-(2,2,2-trifluoroethoxy)phenyl)-2-(trifluoromethyl)-4H-pyrido[1,2-a]pyrimidin-4-one]
34.2 | COc1ccn2c(=O)c(-c3ccc(OCC(F)(F)F)cc3)c(C)nc2c1 [Example 1-67, 8-methoxy-2-methyl-3-(4-(2,2,2-trifluoroethoxy)phenyl)-4H-pyrido[1,2-a]pyrimidin-4-one]
27.6 | COc1ccn2c(=O)c(-c3cnn(CC(F)(F)F)c3)c(C(F)(F)F)nc2c1 [Example 1-74, 8-methoxy-3-(1-(2,2,2-trifluoroethyl)-1H-pyrazol-4-yl)-2-(trifluoromethyl)-4H-pyrido[1,2-a]pyrimidin-4-one]
18.8 | CSc1ccn2c(=O)c(-c3cnn(CC(F)(F)C(F)(F)F)c3)c(C(F)(F)F)nc2c1 [Example 1-30, 8-(methylsulfanyl)-3-(1-(2,2,3,3,3-pentafluoropropyl)-1H-pyrazol-4-yl)-2-(trifluoromethyl)-4H-pyrido[1,2-a]pyrimidin-4-one]
